Measurements published in ChEMBL document CHEMBL1141441, “Crystallographic investigation of the inhibition mode of a VIM-2 metallo-beta-lactamase from Pseudomonas aeruginosa by a mercaptocarboxylate inhibitor” (J Med Chem, 2007).

Experiment: Inhibition of IMP1 expressed in Escherichia coli BL21 (DE3)

Compound `O=C(O)C(CS)CCCc1ccccc1` (racemic) has a Ki of 1660 nM.
